The subject of one series is PD1/PD-L1 pathway. Nature of the series: PD1/PD-L1 Blockade Bioassay, inhibition of the PD1/PD-L1 pathway at the cellular level (luciferase reporter, PD-1 Jukat T cells co-cultured with PD-L1 aAPC/CHO-K1 cells). It is filed as cell-based. As to conditions: T-cell.
Series [1] is described as follows: Pharmacokinetics experiment in SD rats. It is filed as in vivo. Particulars: male SD rats. The method, then: Experiment 2: Pharmacokinetics Experiment
1) Preparation of the compound solutions of Example 1 and Example 17: The test compound was prepared into a solution using 10% dimethyl sulfoxide, 10% Kolliphor HS15 and 80% physiological saline; Preparation of the compound solution of Example 11: The compound to be tested is prepared into a solution with 5% dimethyl sulfoxide, 5% Kolliphor HS15 and 90% saline for oral administration or intravenous injection.
2) Male SD rats weighing 250-345 g were randomly divided into two groups. One group was intravenously injected with the test compound at a dose of 1.0 mg/kg, and the other group was orally administered with the test compound at a dose of 5.0 mg/kg. Blood was collected at 0.083, 0.25, 0.5, 1, 2, 5, 7 and 24 hours after administration.
3) A standard curve of an appropriate range was established according to the sample concentration, and the concentration of the test compound in the plasma sample was determined in the MRM mode using an AB SCIEX Q TRAP 4000 LC-MS/MS. The pharmacokinetic parameters were calculated using the non-compartmental model method using WinNonLin 6.3 software.

Setting [2] is: rat, plasma, ig (oral), 5 mg/kg.

Consider one compound from patent US20260234140A1, “PYRIDOPYRIMIDINE DERIVATIVE AND USE THEREOF” (SUNSHINE LAKE PHARMA CO., LTD., priority 2023, published 2026).

With `COc1nc(-c2cccc(-c3cccc(Nc4nc(C(F)F)nc5cc(CN6CC[C@@H](O)C6)cnc45)c3C)c2Cl)cnc1CN(C)[C@H]1CC[C@H](C(=O)O)CC1` [Example 11, (1r,4r)-4-(((5-(2-chloro-3′-((2-(difluoromethyl)-7-(((R)-3-hydroxypyrrolidin-1-yl)methyl)pyrido[3,2-d]pyrimidin-4-yl)amino)-2′-methyl-[1,1′-biphenyl]-3-yl)-3-methoxypyrazin-2-yl)methyl)(methyl)amino)cyclohexane-1-carboxylic acid], in the series with PD1/PD-L1 pathway (PD-1 Jukat T cells + PD-L1 aAPC/CHO-K1 cells, 6 h co-culture, ONE-Glo luciferase readout), the EC50 amounted to 20.4 nM. The compound further came in with an Emax with PD1/PD-L1 pathway (maximum % Activity relative to atezolizumab (set to 100%)) of 98.5%. The compound also yielded a F in series [1] (ig (oral), 5 mg/kg) of 52.9%. For the same compound, in series [1] (setting [2]), the AUC(0-t) stood at 16700 ng·h/mL, the peak level (Cmax) was 1630 ng/mL and the half-life was 258 min. In series [1] (rat, plasma, iv, 1 mg/kg), this compound had an AUC(0-t) of 6370 ng·h/mL, a Cmax of 1100 ng/mL, a clearance of 2.6 mL/min/kg and a half-life of 234 min. Also, in series [1] (rat, plasma, iv, 1 mg/kg, read-out: Vss), the Vd came out at 0.75 L/kg.
